{"source": "patent US20130109664A1", "about": "(priority 2011, published 2013)", "key": {"Malassezia furfur": {"tested_on": "Malassezia furfur", "experiment": "Intrinsic anti-Malassezia potency, growth inhibition by optical density", "format": "cell-based", "settings": "for IC50: M. furfur in mDixon medium, overnight at 31°, OD 600 nm; for independent anti-fungal effectiveness (in words): comment on Table 1 data", "protocol": "To measure the growth inhibition properties of test materials against Malassezia, we carried out the following protocol.\nStarting cultures are prepared by incubating with shaking at 31°. Cells (5 ml of culture) are collected by centrifugation and suspended in 50 ml fresh mDixon medium. […] The plates are shaken vigorously on a Heidolph Titramax 100 overnight at 31°. To increase the humidity, water-soaked cotton batting is placed over the plates.\nAs a control, the optical density of untreated M. furfur is measured after overnight incubation. As another control, the optical density of the starting culture is measured. The difference between these optical densities represents the amount of growth of M. furfur."}, "[1]": {"settings": "cited from earlier work"}, "M. furfur 7982": {"tested_on": "M. furfur 7982", "experiment": "Fractional Inhibitor Concentration (FIC) of chelator in combination with ZPT", "format": "cell-based, Malassezia furfur", "settings": "average of duplicate plates, 2 days at 33° C., ≦0.5 synergistic, >0.5-1.0 additive", "description": "Fractional Inhibitor Concentration (FIC) is a conventional methodology for evaluating antimicrobial interactions. In an embodiment of the present invention, an FIC is used to determine combinatorial effects of two chemicals on anti-Malassezia activity in a tissue culture setting.\n• 1. Each FIC assay is run in duplicate. • 2. Low levels of M. furfur 7982 cells are inoculated into each well of a 96 well plate. • 3. Chemical #1 (in our assays, this is always ZPT) is titrated (2× concentration reductions) from right to left across each row of the plate, starting at 12.5 ppm final concentration and ending at 0 ppm. • 4. […] Plates are incubated at 33° C., 60% RH for 2 days with agitation. • 6. Optical densities (OD's) are then determined using a spectrophotometer.\n• 1. […] Lack of inhibition of growth is determined if the OD>0.6, and the well is labeled with a ‘+’. • 3. The lowest concentration value of chemical #1, both by itself and with the lowest concentration of chemical #1 which boosts chemical #2's potency, that inhibit growth are determined (see FIG. 1). • 4. Likewise, the lowest concentration of chemical #2, both by itself and with the lowest concentration of chemical #2 that boosts chemical #1's potency, that inhibit growth are determined (see FIG. 1). • 5. The FIC value for the duplicate plates is determined using the calculations below:\n[formula] [formula] • 6. The average FIC value is then determined, and the combinatorial effect of the two chemicals is classified according to the chart below: […]"}, "[2]": {"experiment": "Iron affinity, stepwise association constant log K1", "format": "physicochemical", "description": "The strength of the association between a ligand and metal, in this case iron, can be termed iron affinity.\nThe affinity constant is conveniently expressed as the logarithm (log K1) and the larger the magnitude of this number, the stronger the association between the metal (iron ions in this case) and ligand."}, "[3]": {"settings": "source (a) NIST Standard Reference Database 46"}, "[4]": {"settings": "(e) interpolated from correlation between Cu2+ and Fe2+ data"}, "[5]": {"settings": "(c) interpolated from correlation between Zn2+ and Fe2+ data"}, "[6]": {"settings": "(d) interpolated from correlation between Fe3+ and Fe2+ data"}, "[7]": {"settings": "source (b) IUPAC Stability Constant Database"}}, "note": "Where two headings read alike, the source gives them in different places."}
{"compound": "O=C(O)CN(CC(=O)O)[C@@H]1CCCC[C@H]1N(CC(=O)O)CC(=O)O", "note": "(relative stereo) [trans-1,2-Cyclohexylenedinitrilotetraacetic acid]", "values": [{"measurement": "IC50", "setting": "Malassezia furfur", "value": 500, "unit": "µM"}, {"measurement": "Iron Affinity, log K1 Fe2+, pH = 7.4", "setting": "[1]; [3]", "value": 14.0}]}
{"compound": "Cc1c([O-])c(=O)ccn1C.Cc1c([O-])c(=O)ccn1C.[Zn+2]", "note": "[1,2-Dimethyl-3-hydroxy-4-pyridone, Zinc salt]", "values": [{"measurement": "FIC (Fractional Inhibitory Concentration)", "setting": "M. furfur 7982", "value": 0.5}]}
{"compound": "C1CNCCNCCNCCNCCNCCN1", "note": "[1,4,7,10,13,16-Hexaazacyclooctadecane]", "values": [{"measurement": "Iron Affinity, log K1 Fe2+, pH = 7.4", "setting": "[2]; [4]", "value": 13.3}]}
{"compound": "O=C(O)CN1CCCN(CC(=O)O)CCN(CC(=O)O)CCCN(CC(=O)O)CC1", "note": "[1,4,8,11-Tetraazacyclotetradecane-N,N′,N″,N″′-tetraacetic acid]", "values": [{"measurement": "IC50", "setting": "Malassezia furfur", "value": "> 500", "unit": "µM"}, {"measurement": "Iron Affinity, log K1 Fe2+, pH = 7.4", "setting": "[1]; [3]", "value": 9.9}]}
{"compound": "S=C(N=Nc1ccccc1)NNc1ccccc1", "note": "[1,5-Diphenyl-1,2,4,5-tetraazapent-1-en-3-thione]", "values": [{"measurement": "Iron Affinity, log K1 Fe2+, pH = 7.4", "setting": "[1]; [3]", "value": 6.5}]}
{"compound": "c1cnc2c(c1)ccc1cccnc12", "note": "[1,10-Phenanthroline]", "values": [{"measurement": "Iron Affinity, log K1 Fe2+, pH = 7.4", "setting": "[1]; [3]", "value": 5.9}]}
{"compound": "Oc1ccc2ccccc2c1N=Nc1nccs1", "note": "[1-(2-Thiazoylazo)-2-naphthol]", "values": [{"measurement": "Iron Affinity, log K1 Fe2+, pH = 7.4", "setting": "[2]; [5]", "value": 6.6}, {"measurement": "IC50", "setting": "Malassezia furfur", "value": 250, "unit": "µM"}]}
{"compound": "CC(C)c1cccc(O)c(=O)c1", "note": "[1-Hydroxy-4-(1-methylethyl)cyclohepta-3,5,7-trien-2-one]", "values": [{"measurement": "Iron Affinity, log K1 Fe2+, pH = 7.4", "setting": "[2]; [5]", "value": 4.9}, {"measurement": "IC50", "setting": "Malassezia furfur; Malassezia furfur", "value": 65, "unit": "µM"}]}
{"compound": "c1ccc(-c2cccc(-c3ccccn3)n2)nc1", "note": "[2,2′: 6′,2″-terpyridine]", "values": [{"measurement": "Iron Affinity, log K1 Fe2+, pH = 7.4", "setting": "[2]; [5]", "value": 5.0}]}
{"compound": "Cc1ccc2ccc3ccc(C)nc3c2n1", "note": "[2,9-dimethyl-1,10-phenanthroline]", "values": [{"measurement": "Iron Affinity, log K1 Fe2+, pH = 7.4", "setting": "[2]; [5]", "value": 3.3}]}
{"compound": "NCCc1ccccn1", "note": "[2-(2-aminoethyl)-pyridine]", "values": [{"measurement": "Iron Affinity, log K1 Fe2+, pH = 7.4", "setting": "[2]; [6]", "value": 5.2}]}
{"compound": "Cc1c(O)c(=O)ccn1C", "note": "[3-Hydroxy-1,2-dimethyl-4(1H)-pyridone]", "values": [{"measurement": "Iron Affinity, log K1 Fe2+, pH = 7.4", "setting": "[2]; [5]", "value": 3.9}]}
{"compound": "Oc1ccc(N=Nc2nccs2)c(O)c1", "note": "[4-(2-thiazolylazo)-resorcinol]", "values": [{"measurement": "Iron Affinity, log K1 Fe2+, pH = 7.4", "setting": "[1]; [3]", "value": 3.2}]}
{"compound": "Oc1c(Cl)cc(Cl)c2cccnc12", "note": "[5,7-dichloro-8-hydroxyquinoline]", "values": [{"measurement": "Iron Affinity, log K1 Fe2+, pH = 7.4", "setting": "[1]; [7]", "value": 7.2}]}
{"compound": "Oc1c(I)cc(Cl)c2cccnc12", "note": "[5-Chloro-8-hydroxy-7-iodoquinoline]", "values": [{"measurement": "Iron Affinity, log K1 Fe2+, pH = 7.4", "setting": "[1]; [7]", "value": 7.0}]}
{"compound": "Oc1cccc2cccnc12", "note": "[8-hydroxyquinoline]", "values": [{"measurement": "Iron Affinity, log K1 Fe2+, pH = 7.4", "setting": "[2]; [5]", "value": 4.9}]}
{"compound": "O=C(O)CN(CCN(CC(=O)O)CC(=O)O)CC(=O)O", "note": "[Ethylenediaminetetraacetic acid]", "values": [{"measurement": "IC50", "setting": "Malassezia furfur; Malassezia furfur", "value": "> 500", "unit": "µM"}, {"measurement": "independent anti-fungal effectiveness (in words)", "setting": "Malassezia furfur", "value": "not to be effective"}]}
{"compound": "CCC(NCCNC(CC)C(=O)O)C(=O)O", "note": "(stereo not shown) [Ethylenediiminodi-2-butanoic acid]", "values": [{"measurement": "Iron Affinity, log K1 Fe2+, pH = 7.4", "setting": "[2]; [5]", "value": 6.3}, {"measurement": "IC50", "setting": "Malassezia furfur", "value": "> 500", "unit": "µM"}]}
{"compound": "c1ccc(CN(CCN(Cc2ccccn2)Cc2ccccn2)Cc2ccccn2)nc1", "note": "[N,N,N′,N-tetrakis(2-pyridylmethyl) ethylenediamine]", "values": [{"measurement": "IC50", "setting": "Malassezia furfur", "value": 71, "unit": "µM"}, {"measurement": "Iron Affinity, log K1 Fe2+, pH = 7.4", "setting": "[1]; [3]", "value": 14.2}]}
{"compound": "O=C(O)CN(CCO)CCO", "note": "[N,N-Bis(2-hydroxyethyl)glycine]", "values": [{"measurement": "Iron Affinity, log K1 Fe2+, pH = 7.4", "setting": "[2]; [5]", "value": 3.6}]}
{"compound": "O=C1c2cccc3cccc(c23)C(=O)N1O", "note": "[N,N-Naphthaloylhydroxylamine]", "values": [{"measurement": "FIC (Fractional Inhibitory Concentration)", "setting": "M. furfur 7982", "value": 0.8}]}
{"compound": "CCCCCCCCOc1cccc(=O)n1O.NCCO", "note": "[N-Hydroxy-6-octyloxypyridine-2(1H)one, ethanolamine salt]", "values": [{"measurement": "Iron Affinity, log K1 Fe2+, pH = 7.4", "setting": "[2]; [6]", "value": 5.4}, {"measurement": "IC50", "setting": "Malassezia furfur", "value": 54.6, "unit": "µM"}, {"measurement": "FIC (Fractional Inhibitory Concentration)", "setting": "M. furfur 7982", "value": 0.62}]}
{"compound": "CCCCCCCCOc1cccc(=O)n1[O-].CCCCCCCCOc1cccc(=O)n1[O-].[Zn+2]", "note": "[N-Hydroxy-6-octyloxypyridine-2(1H)one, zinc salt]", "values": [{"measurement": "FIC (Fractional Inhibitory Concentration)", "setting": "M. furfur 7982", "value": 0.7}]}
{"compound": "O=C(O)c1ccccc1O", "note": "[Salicylic acid]", "values": [{"measurement": "Iron Affinity, log K1 Fe2+, pH = 7.4", "setting": "[2]; [4]", "value": "−3.0"}, {"measurement": "IC50", "setting": "Malassezia furfur; Malassezia furfur", "value": "> 500", "unit": "µM"}]}
{"compound": "Cc1occc(=S)c1O", "note": "[Thiomaltol]", "values": [{"measurement": "FIC (Fractional Inhibitory Concentration)", "setting": "M. furfur 7982", "value": 0.8}]}
{"compound": "[O-]n1ccccc1=S.[O-]n1ccccc1=S.[Zn+2]", "note": "[Zinc Pyrithione, zinc salt of 1-hydroxy-2-pyridinethione]", "values": [{"measurement": "Iron Affinity, log K1 Fe2+, pH = 7.4", "setting": "[2]; [5]", "value": 4.3}]}
{"compound": "NCCC(=O)N[C@@H](Cc1c[nH]cn1)C(=O)O", "note": "[beta-Alanyl-L-histidine]", "values": [{"measurement": "Iron Affinity, log K1 Fe2+, pH = 7.4", "setting": "[2]; [5]", "value": 1.3}]}
{"compound": "O=c1cc(CO)occ1O", "note": "[kojic acid]", "values": [{"measurement": "Iron Affinity, log K1 Fe2+, pH = 7.4", "setting": "[2]; [5]", "value": 3.7}]}
{"compound": "Cc1occc(=O)c1O", "note": "[maltol]", "values": [{"measurement": "Iron Affinity, log K1 Fe2+, pH = 7.4", "setting": "[2]; [5]", "value": 6.4}, {"measurement": "independent anti-fungal effectiveness (in words)", "setting": "Malassezia furfur", "value": "too hydrophilic to be an effective anti-fungal material independently"}]}
{"compound": "Benzohydroxamic acid, Zinc Salt", "values": [{"measurement": "FIC (Fractional Inhibitory Concentration)", "setting": "M. furfur 7982", "value": 0.3}]}
{"compound": "Maltol, Zinc salt", "values": [{"measurement": "FIC (Fractional Inhibitory Concentration)", "setting": "M. furfur 7982", "value": 0.1}]}
{"compound": "Thiomaltol, Zinc salt", "values": [{"measurement": "FIC (Fractional Inhibitory Concentration)", "setting": "M. furfur 7982", "value": 0.5}]}
